Where a name gives a salt, the structure may show the parent alone. Read-outs that look alike come from different tables or passages of the source.
Tests used:
[1] = test system: hiPSC-CM (iCell Cardiomyocytes^2); assay: Intracellular miRNA expression by RT-qPCR in hiPSC-CM pellets after 72-hour treatment; conditions: for fold induction at 0.01 µM / fold induction at 0.03 µM / fold induction at 0.1 µM / fold induction at 0.3 µM: Homo sapiens; for fold induction at 0.01 µM / fold induction at 0.03 µM / fold induction at 0.1 µM / fold induction at 0.3 µM / miRNAs hiPSC-CM pellet, MEC overall / hsa-miR-7-5p fold change, intracellular / hsa-miR-29a-5p fold change, intracellular / hsa-miR-96-5p fold change, intracellular / hsa-miR-126-3p fold change, intracellular / hsa-miR-133b fold change, intracellular / hsa-miR-146b-5p fold change, intracellular / hsa-miR-182-5p fold change, intracellular / hsa-miR-185-3p fold change, intracellular / hsa-miR-187-3p fold change, intracellular / hsa-miR-208b-3p fold change, intracellular / hsa-miR-365a-5p fold change, intracellular: 72 h; for miRNAs upregulated at the MEC overall (hiPSC-CM pellet): fold change ≥2, 72 h; for miRNAs hiPSC-CM pellet, MEC overall: lowest concentration tested which produced miRNA upregulation (fold change ≥2)
Procedure: (§1) Culture media change was performed every 2 days.
Total RNA was extracted from hiPSC-CM using the miRNeasy 96 Kit (Qiagen, Hilden, Germany) following the manufacturer’s recommendations. After the extraction, RNA purity was assessed by NanoDrop™ 8000 Spectrophotometer (Thermo Fisher Scientific Inc.). 5–10 ng/μL of RNA per sample were reverse transcribed and pre-amplified by using the TaqMan™ Advanced miRNA cDNA Synthesis Kit (Thermo Fisher Scientific Inc.). The synthesized cDNA was used for RT-qPCR with selected TaqMan™ assays (Thermo Fischer Scientific Inc.). RT-qPCR was carried out following the Applied Biosciences TaqMan miRNA expression assay protocol on a ViiA7 instrument (Thermo Fisher Scientific, Inc.). […] Therefore, to maximize the number of drugs and concentrations, explored in the same study, we pooled the triplicates for intracellular profiling of miRNAs. Therefore, no statistical analysis was performed on the data of miRNA profiling in the pellets of hiPSC-CM.
Following RTCA CardioECR assessment, hiPSC-CM cell pellets were collected, and total RNA was extracted and purified to investigate miRNAs upregulation by RT-qPCR. […] For the initial assessment of intracellular miRNAs in 12 different treatments, encompassing various drug classes, we used a panel of 17 miRNAs, which we selected from the publicly available data focusing mainly on in vitro models and structural cardiotoxicants (Supplementary Table S2).

[2] = ref extensive literature search, cited from earlier work
[3] = test system: hiPSC-CM (iCell Cardiomyocytes^2); assay: RTCA CardioECR assessment (impedance and electrophysiology parameters); conditions: for Field Potential Duration MEC: at least 10% change; for Beating rate (BR) MEC / Cell index (CI) MEC: lowest concentration causing at least 20% change from baseline; for RTCA, MEC (BR) / RTCA, MEC (CI): change ≥20%, Table 2
Procedure: as §1
After seeding on fibronectin-coated xCELLigence ePlates (Agilent Technologies, Inc. Santa Clara, CA, USA), iCell^2 CM were monitored continuously through impedance electrodes. The following impedance parameters were measured: Cell Index (CI, measure of cell “health” and monolayer integrity), beating rate (BR) and amplitude (CI Amplitude, magnitude of contraction). Electrophysiology-like parameters (Field Potential Duration (FPD), considered as a surrogate for QT in in vivo studies, and Spike Amplitude (SA), depolarization induced by Na^+ channel opening) were measured starting from day 4–6, following the monolayer formation. […] All RTCA CardioECR data were double normalized (DMSO control and the baseline) with no further statistical group comparison for the normalized parameters. The variability of the data within the treatment groups was assessed by standard deviation.

[4] = read-out: hsa-miR-7-5p fold change
[5] = read-out: hsa-miR-126-3p fold change
[6] = read-out: hsa-miR-146b-5p fold change
[7] = read-out: hsa-miR-182-5p fold change
[8] = read-out: hsa-miR-185-3p fold change
[9] = read-out: hsa-miR-187-3p fold change
[10] = read-out: hsa-miR-208b-3p fold change
[11] = hiPSC-CM, 72-hour treatment, Supplementary Table 1
[12] = hiPSC-CM, 72-hour treatment, change from baseline

CCCCCNC(=N)N/N=C/c1c[nH]c2ccc(OC)cc12 [Tegaserod]
fold induction at 0.01 µM [1, 4]: 0.8 | fold induction at 0.03 µM [1, 4]: 1.4 | fold induction at 0.1 µM [1, 4]: 1.3 | fold induction at 0.3 µM [1, 4]: 2 | fold induction at 0.01 µM [1, 5]: 2 | fold induction at 0.03 µM [1, 5]: 4.9 | fold induction at 0.1 µM [1, 5]: 0.9 | fold induction at 0.3 µM [1, 5]: 3.2 | fold induction at 0.01 µM [1, 6]: 0.5 | fold induction at 0.03 µM [1, 6]: 0.7 | fold induction at 0.1 µM [1, 6]: 1.2 | fold induction at 0.3 µM [1, 6]: 0.9 | fold induction at 0.01 µM [1, 7]: 1.8 | fold induction at 0.03 µM [1, 7]: 3.9 | fold induction at 0.1 µM [1, 7]: 1.9 | fold induction at 0.3 µM [1, 7]: 15.7 | fold induction at 0.01 µM [1, 8]: 0.7 | fold induction at 0.03 µM [1, 8]: 1.3 | fold induction at 0.1 µM [1, 8]: 0.9 | fold induction at 0.3 µM [1, 8]: 1 | fold induction at 0.01 µM [1, 9]: 2.5 | fold induction at 0.03 µM [1, 9]: 2 | fold induction at 0.1 µM [1, 9]: 2 | fold induction at 0.3 µM [1, 9]: 3.7 | fold induction at 0.01 µM [1, 10]: 1.8 | fold induction at 0.03 µM [1, 10]: 1.2 | fold induction at 0.1 µM [1, 10]: 1.7 | fold induction at 0.3 µM [1, 10]: 1.4 | fold induction at 0.01 µM ([1]; read-out: hsa-miR-[…] change): 0.8 | fold induction at 0.03 µM ([1]; read-out: hsa-miR-[…] change): 0.8 | fold induction at 0.1 µM ([1]; read-out: hsa-miR-[…] change): 0.9 | fold induction at 0.3 µM ([1]; read-out: hsa-miR-[…] change): 0.7 | miRNAs upregulated at the MEC overall (hiPSC-CM pellet) [1]: miR-126-3p, miR-187-3p | miRNAs hiPSC-CM pellet, MEC overall [1]: 0.01 µM | Cmax total ([2]; Supplementary Table 1): 80 nM | Cmax total ([2]; Table 1): 80 nM | Field Potential Duration MEC ([3]; hiPSC-CM, 72-hour treatment): 0.1 µM | Beating rate (BR) MEC ([3]; hiPSC-CM, 72-hour treatment): ND (ND – not detected, magnitude of change was lower than 20%) | Cell index (CI) MEC ([3]; hiPSC-CM, 72-hour treatment): ND (ND – not detected, magnitude of change was lower than 20%) | RTCA, MEC (BR) ([3]; hiPSC-CM): ND (ND – not detected, magnitude of change was lower than 20% for CI/BR) | RTCA, MEC (CI) ([3]; hiPSC-CM): ND (ND – not detected, magnitude of change was lower than 20% for CI/BR) | Spike Amplitude (SA) MEC ([3]; human, 72 h): 0.01 µM

CC(C)C[C@H](NC(=O)CNC(=O)c1cc(Cl)ccc1Cl)B1OC(=O)C(CC(=O)O)(CC(=O)O)O1 [Ixazomib Citrate]
hsa-miR-7-5p fold change, intracellular ([1]; 0.03 µM): 2.0 | hsa-miR-29a-5p fold change, intracellular ([1]; 0.03 µM): 1.5 | hsa-miR-96-5p fold change, intracellular ([1]; 0.03 µM): 8.8 | hsa-miR-126-3p fold change, intracellular ([1]; 0.03 µM): 1.7 | hsa-miR-133b fold change, intracellular ([1]; 0.03 µM): 1.2 | hsa-miR-146b-5p fold change, intracellular ([1]; 0.03 µM): 1.0 | hsa-miR-182-5p fold change, intracellular ([1]; 0.03 µM): 1.4 | hsa-miR-185-3p fold change, intracellular ([1]; 0.03 µM): 1.0 | hsa-miR-187-3p fold change, intracellular ([1]; 0.03 µM): 1.1 | hsa-miR-208b-3p fold change, intracellular ([1]; 0.03 µM): 0.9 | hsa-miR-7-5p fold change, intracellular ([1]; 0.1 µM): 0.3 | hsa-miR-29a-5p fold change, intracellular ([1]; 0.1 µM): 2.0 | hsa-miR-96-5p fold change, intracellular ([1]; 0.1 µM): 6.4 | hsa-miR-126-3p fold change, intracellular ([1]; 0.1 µM): 1.8 | hsa-miR-133b fold change, intracellular ([1]; 0.1 µM): 25.3 | hsa-miR-146b-5p fold change, intracellular ([1]; 0.1 µM): 1.9 | hsa-miR-182-5p fold change, intracellular ([1]; 0.1 µM): 34.9 | hsa-miR-185-3p fold change, intracellular ([1]; 0.1 µM): 0.4 | hsa-miR-187-3p fold change, intracellular ([1]; 0.1 µM): 3.1 | hsa-miR-208b-3p fold change, intracellular ([1]; 0.1 µM): 0.0 | hsa-miR-365a-5p fold change, intracellular ([1]; 0.1 µM): 44.3 | hsa-miR-7-5p fold change, intracellular ([1]; 0.3 µM): 6.9 | hsa-miR-29a-5p fold change, intracellular ([1]; 0.3 µM): 1.7 | hsa-miR-96-5p fold change, intracellular ([1]; 0.3 µM): 13.0 | hsa-miR-126-3p fold change, intracellular ([1]; 0.3 µM): 2.7 | hsa-miR-133b fold change, intracellular ([1]; 0.3 µM): 0.4 | hsa-miR-146b-5p fold change, intracellular ([1]; 0.3 µM): 7.1 | hsa-miR-182-5p fold change, intracellular ([1]; 0.3 µM): 8.5 | hsa-miR-185-3p fold change, intracellular ([1]; 0.3 µM): 2.0 | hsa-miR-187-3p fold change, intracellular ([1]; 0.3 µM): 1.6 | hsa-miR-208b-3p fold change, intracellular ([1]; 0.3 µM): 0.8 | hsa-miR-365a-5p fold change, intracellular ([1]; 0.3 µM): 2.5 | hsa-miR-7-5p fold change, intracellular ([1]; 1 µM): 12.6 | hsa-miR-29a-5p fold change, intracellular ([1]; 1 µM): 4.7 | hsa-miR-96-5p fold change, intracellular ([1]; 1 µM): 13.4 | hsa-miR-126-3p fold change, intracellular ([1]; 1 µM): 3.1 | hsa-miR-133b fold change, intracellular ([1]; 1 µM): 0.6 | hsa-miR-146b-5p fold change, intracellular ([1]; 1 µM): 3.2 | hsa-miR-182-5p fold change, intracellular ([1]; 1 µM): 5.6 | hsa-miR-185-3p fold change, intracellular ([1]; 1 µM): 0.9 | hsa-miR-187-3p fold change, intracellular ([1]; 1 µM): 2.4 | hsa-miR-208b-3p fold change, intracellular ([1]; 1 µM): 0.9 | intracellular miRNA upregulation in hiPSC-CM, in words ([1]; 72-hour treatment, four concentrations per drug): highly upregulated hsa-miR-133b, hsa-miR-182-5pand hsa-miR-365a-5p | miRNAs upregulated at the MEC overall (hiPSC-CM pellet) [1]: miR-126-3p, miR-29a-5p, miR-7-5p, miR-96-5p | miRNAs hiPSC-CM pellet, MEC overall [1]: 0.03 µM | Cmax total ([2]; Supplementary Table 1): 213 nM | Cmax total ([2]; Table 1): 210 nM | Contractility Amplitude magnitude of effect at MEC ([3]; hiPSC-CM, 72-hour treatment): -94% | Field Potential Duration magnitude of effect at MEC ([3]; hiPSC-CM, 72-hour treatment): -35% | Spike Amplitude (SA) magnitude of effect at MEC ([3]; hiPSC-CM, 72-hour treatment): +75% | Beating Rate magnitude of effect at MEC [3, 11]: +33% | Cell Index magnitude of effect at MEC [3, 11]: -37% | Field Potential Duration MEC ([3]; hiPSC-CM, 72-hour treatment): 0.03 µM | Contractility Amplitude MEC ([3]; hiPSC-CM, 72-hour treatment, at least 20% change): 0.1 µM | Beating Rate MEC ([3]; hiPSC-CM, 72-hour treatment, at least 20% change, Supplementary Table 1): 0.03 µM | Spike Amplitude (SA) MEC ([3]; hiPSC-CM, 72-hour treatment, at least 40% change): 0.03 µM | Beating rate (BR) magnitude of effect at MEC [3, 12]: +33% | Cell index (CI) magnitude of effect at MEC [3, 12]: −37% | Beating rate (BR) MEC ([3]; hiPSC-CM, 72-hour treatment): 0.03 µM | Cell index (CI) MEC ([3]; hiPSC-CM, 72-hour treatment): 0.3 µM | RTCA, MEC (BR) ([3]; hiPSC-CM): 0.03 µM | RTCA, MEC (CI) ([3]; hiPSC-CM): 0.3 µM
